# Assay results: patent US4198508A, “Process for preparing 4-substituted imidazo[1,2-a]quinoxalines” (Westwood Pharmaceuticals Inc., priority 1977, dated 1980)
# Columns and labels:
# [1] = test system: Trichophyton mentagrophytes; test: antifungal activity, agar dilution method; format: cell-based, Trichophyton mentagrophytes (ATCC No. 8757 and 9129)
# Experimental: (§1) Various compounds of this invention display antifungal and anti-yeast activity.
# (§2) In Table IX below are listed the antifungal activity of a number of compounds encompassed in the present invention. These were determined by the agar dilution method as described in Chapters 2 and 3 of Methods in Microbiology, Vol. 7B, edited by J. R. Norris and D. W. Ribbons, Academic Press, New York, 1972.
# [2] = test system: humeral or antibody response; test: hemolysin test in mice; format: in vivo, mouse; settings: s.c., dose to reduce antibody activity by 50% versus control
# [3] = test system: cell-mediated immune response to the antigen, Mycobacterium tuberculosis H37Ra; test: delayed hypersensitivity test; format: in vivo, mouse; settings: mice, s.c.; dose to reduce edema of cell-mediated immune response by 60% versus control
# Experimental: The immunosuppressant activities of the compounds of this invention were determined via the hemolysin test in mice and by the delayed hypersensitivity test. The hemolysin test used is that described in Methods in Immunology, edited by D. H. Campbell et al, W. A. Benjamin, New York 1963 pages 172-175, and measures humeral or antibody response. The delayed hypersensitivity test measures the effect of a test compound on the ability of a subject mouse to mount a cell-mediated immune response to the antigen, Mycobacterium tuberculosis H37Ra. The mouse is sensitized to the antigen by subcutaneous administration in the base of the tail. The development of the delayed hypersensitivity response may be measured at any time beginning six days after sensitization but is usually done on the ninth day as follows: The right hind paw is injected with purified protein derivative (tuberculin) while the left hind paw (control) receives physiological saline. Both paw volumes are measured after twenty-four hours and significant increase in the volume of the right hand paw is taken as a measure of an effective delayed hypersensitivity response. All compounds were administered by the subcutaneous route.
# The D.H.S. (ED60) mg./kg. s.c. value appearing in column 3 is an expression of the effectiveness of the drug in reducing the edema that accompanies the cell-mediated immune response. […]
# rat paw edema = rat paw edema assay, oral dosing; format: in vivo; settings: four hours after drug
# Experimental: The anti-inflammatory activity of representative compounds of this invention was determined by the rat paw edema assay both by local administration (Table XI below) and by oral dosing (Table XII below). For the oral dosing, the procedure of C. A. Winter, E. A. Risley and G. W. Nuss, Proc. Soc. Exp. Biol. Med. 111, 544 (1962) was employed with measurement taken four hours after the drug was administered. The local administration tests were carried out similarly except the irritant (carrageenan) and the test compound were injected simultaneously at time zero. Tables XI and XII report the anti-inflammatory activity of the compounds tested as % difference in the edema or swelling as compared with the control. These Tables also give the response in many instances of more than one dose level of the same drug.
# Trichophyton ajelloi = test: antifungal activity, agar dilution method; format: cell-based
# Experimental: as §1, §2
# Trichophyton rubrum = test: antifungal activity, agar dilution method; format: cell-based, Trichophyton rubrum (ATCC No. 10218 and 14001)
# Experimental: as §1, §2
SMILES,Parts Per Million Inhibitions of T. mentagrophytes [1] [Parts Per Million],HL(ED50) [2] [mg/kg],D.H.S. (ED60) [3] [mg/kg],%Difference from Control (rat paw edema; 100 mg/kg) [%],%Difference from Control (rat paw edema; 400 mg/kg) [%],Parts Per Million Inhibitions of T. ajelloi (Trichophyton ajelloi) [Parts Per Million],Parts Per Million Inhibitions of T. rubrum (Trichophyton rubrum) [Parts Per Million]
FC(F)(F)c1cccc(-c2nc3ccccc3n3ccnc23)c1 [Compound 136],100,2.7,> 50,-9,-25,–,–
O=[N+]([O-])c1ccc(Nc2nc3ccccc3n3ccnc23)cc1 [Compound 189],–,–,–,–,–,100,100
